# Results: publication PMC8355244, “A fragment-based approach identifies an allosteric pocket that impacts malate dehydrogenase activity” (Communications Biology, 2021)
# Several values for one entry are separate records, joined by “and”; a condition that tells them apart may be missing. Identical values can stand only once. Like-named read-outs stand apart in the source and are kept apart here.
# How the values were obtained:
# WT PfMDH = target: T1, WT PfMDH (Plasmodium falciparum, UniProt Q6VVP7); assay: Activity screening of 4DT / 4-phenylthiazol-2-amine derivatives (oxidation of malate, absorbance at 340 nm); type: biochemical; details: for inhibition at 500 µM: Dunnett's multiple comparisons test, read-out: Mean Diff. (positive control vs. compound); for Slope repl1 / Slope repl2: linear regression slope of absorbance 340 nm vs time; for Slope normalized repl1: slope relative to control = 1, replicate 1; for Slope normalized repl2: slope relative to control = 1, replicate 2
# T1 construct: The full-length WT PfMDH gene was cloned into pETM-13; made in house; host or cells: E. coli Rosetta 2 (DE3) pLysS
# Experimental: The oxidation of malate to oxaloacetate was assayed spectrophotometrically in flat-bottomed Corning 96-well microplates in a total volume of 250.0 µl in 50 mM glycine buffer pH 10.2[24] with an additional 400 mM NaCl for protein stability. The increase of absorbance at 340 nm was recorded in kinetic mode using a Tecan Spark multimode microplate reader at 298 K. A mastermix of 50 mM NAD+ and 44 μM PfMDH was used for both the screening and kinetics experiments. The final concentration of protein and cofactor were […], respectively. Positive control groups were set (absence of compound) in the same plate as the treated group. The absorbance from the background noise was subtracted from the data and then a linear regression model was employed in order to get the line slope from the first 5 min of the reaction. The percentage of enzymatic activity has been calculated as described by Eq. (1)1 enzymeactivity(%)=slopetreated/slopepositivecontrol*100
# 1.3 µL of derivatives of 4-phenylthiazol-2-amine in 100% DMSO were mixed with 237.7 µL of a mastermix of WT PfMDH previously incubated with NAD+. The final compound concentration used in this screening was 500 µM in the presence of 0.5% (v/v) DMSO. The microplate was sealed with silver foil for 1-h incubation at 25–35 °C. Finally, reactions in both the samples and control wells were started upon the addition of 13.0 µL of 5 mM malate). At the end of the experiments, the reaction of the plate was spectrophotometrically assayed at 600 nm in order to identify turbidity due to the low solubility of the compound. All measurements were performed in duplicate.
# PfMDH = target: T2, PfMDH (Plasmodium falciparum, UniProt Q6VVP7); assay: Thermal shift assay (TSA); type: binding; details: for TSA melting curve raw signal: triplicate columns; for TSA melting curve raw fluorescence signal: three replicate columns
# T2 construct: The full-length WT PfMDH gene was cloned into pETM-13; made in house; host or cells: E. coli Rosetta 2 (DE3) pLysS
# Experimental: The TSA experiment was conducted in a BioRad CSX 96 (Biorad). Each reaction consisted of 1 mM of compound (100 mM stock in 100% (v/v) DMSO) and 10 μM PfMDH in 100 mM Na–phosphate buffer pH 7.4, 400 mM NaCl, and 10× Sypro Orange (Invitrogen) for a total volume of 100 μl. Control experiments were performed with 1% (v/v) DMSO. Inflection points were determined using BioRad CFX96™ control software. Generally, a temperature increase of over 1 °C is interpreted as a result of the stabilization of the protein-ligand interaction. On the contrary, a negative shift is considered a destabilization caused by the fragment.
# [1] = 500 µM compound, Dunnett test details, positive control mean 100, n 2, read-out: Mean 2 (mean % enzymatic activity of treated group)
# [2] = 500 µM compound, control 100%, replicate 1, read-out: % enzymatic activity repl1
# [3] = 500 µM compound, control 100%, replicate 2, read-out: % enzymatic activity repl2
# T2 sequence (Q6VVP7 entry or part of it): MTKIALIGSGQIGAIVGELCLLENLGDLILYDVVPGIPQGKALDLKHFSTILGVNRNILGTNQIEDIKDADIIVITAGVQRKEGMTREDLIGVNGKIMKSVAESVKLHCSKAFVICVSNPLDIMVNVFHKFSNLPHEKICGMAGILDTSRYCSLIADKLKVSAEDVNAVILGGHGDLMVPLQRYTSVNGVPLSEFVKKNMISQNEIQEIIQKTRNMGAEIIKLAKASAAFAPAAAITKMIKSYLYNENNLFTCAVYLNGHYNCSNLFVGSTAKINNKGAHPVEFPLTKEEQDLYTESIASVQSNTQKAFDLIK
# T1 sequence (Q6VVP7 entry or part of it): as above
structure (smiles),measurement,setting,value
Nc1nc(-c2ccc(F)c(F)c2)cs1 [1a],remaining activity at 500 µM,WT PfMDH; [1],62%
same,inhibition at 500 µM,WT PfMDH; 500 µM compound,38.5%
same,remaining activity at 500 µM,WT PfMDH; [2],64%
same,remaining activity at 500 µM,WT PfMDH; [3],59%
same,Slope repl1,"WT PfMDH; 500 µM compound, replicate 1",0.02136
same,Slope repl2,"WT PfMDH; 500 µM compound, replicate 2",0.02071
same,Slope normalized repl1,WT PfMDH; 500 µM compound,0.6412
same,Slope normalized repl2,WT PfMDH; 500 µM compound,0.591
same,remaining activity at 500 µM,WT PfMDH; read-out: enzyme activity,62%
NCc1ccc(-c2csnn2)cc1 [2b],remaining activity at 500 µM,WT PfMDH; [1],65%
same,inhibition at 500 µM,WT PfMDH; 500 µM compound,35%
same,remaining activity at 500 µM,WT PfMDH; [2],83%
same,remaining activity at 500 µM,WT PfMDH; [3],47%
same,Slope repl1,"WT PfMDH; 500 µM compound, replicate 1",0.02772
same,Slope repl2,"WT PfMDH; 500 µM compound, replicate 2",0.01654
same,Slope normalized repl1,WT PfMDH; 500 µM compound,0.8322
same,Slope normalized repl2,WT PfMDH; 500 µM compound,0.472
same,remaining activity at 500 µM,WT PfMDH; read-out: enzyme activity,65%
CC(C)c1ccc(-c2csc(N)n2)cc1 [4PA-iPr],TSA melting curve raw signal,PfMDH; Temperature 25,8994.553 and 9647.617 and 6438.185
same,TSA melting curve raw signal,PfMDH; Temperature 28.5,8708.714 and 9422.913 and 6243.713
same,TSA melting curve raw signal,PfMDH; Temperature 29,8666.326 and 9387.251 and 6213.386
same,TSA melting curve raw signal,PfMDH; Temperature 29.5,8621.607 and 9346.814 and 6180.231
same,TSA melting curve raw signal,PfMDH; Temperature 30,8573.486 and 9300.135 and 6142.94
same,TSA melting curve raw signal,PfMDH; Temperature 30.5,8522.699 and 9247.509 and 6102.88
same,TSA melting curve raw signal,PfMDH; Temperature 31,8469.615 and 9188.155 and 6059.768
same,TSA melting curve raw signal,PfMDH; Temperature 31.5,8414.733 and 9123.458 and 6015.201
same,TSA melting curve raw signal,PfMDH; Temperature 32,8359.407 and 9056.051 and 5970.18
same,TSA melting curve raw signal,PfMDH; Temperature 32.5,8304.924 and 8988.081 and 5926.995
same,TSA melting curve raw signal,PfMDH; Temperature 33,8252.482 and 8921.905 and 5886.489
same,TSA melting curve raw signal,PfMDH; Temperature 33.5,8202.645 and 8859.372 and 5849.818
same,TSA melting curve raw signal,PfMDH; Temperature 34,8155.604 and 8800.883 and 5816.694
same,TSA melting curve raw signal,PfMDH; Temperature 34.5,8111.732 and 8745.628 and 5787.575
same,TSA melting curve raw signal,PfMDH; Temperature 35,8070.534 and 8693.896 and 5761.965
same,TSA melting curve raw signal,PfMDH; Temperature 35.5,8031.026 and 8644.443 and 5738.964
same,TSA melting curve raw signal,PfMDH; Temperature 36,7993.542 and 8596.911 and 5718.436
same,TSA melting curve raw signal,PfMDH; Temperature 36.5,7957.673 and 8551.007 and 5700.528
same,TSA melting curve raw signal,PfMDH; Temperature 37,7922.464 and 8507.049 and 5684.445
same,TSA melting curve raw signal,PfMDH; Temperature 37.5,7887.874 and 8463.879 and 5669.608
same,TSA melting curve raw signal,PfMDH; Temperature 38,7853.441 and 8420.795 and 5655.816
same,TSA melting curve raw signal,PfMDH; Temperature 38.5,7818.479 and 8377.106 and 5642.728
same,TSA melting curve raw signal,PfMDH; Temperature 39,7782.8 and 8332.642 and 5629.831
same,TSA melting curve raw signal,PfMDH; Temperature 39.5,7746.169 and 8286.504 and 5617.536
same,TSA melting curve raw signal,PfMDH; Temperature 40,7708.198 and 8238.766 and 5605.837
same,TSA melting curve raw signal,PfMDH; Temperature 40.5,7669.164 and 8190.253 and 5594.748
same,TSA melting curve raw signal,PfMDH; Temperature 41,7629.283 and 8141.701 and 5584.57
same,TSA melting curve raw signal,PfMDH; Temperature 41.5,7588.559 and 8093.153 and 5575.514
same,TSA melting curve raw signal,PfMDH; Temperature 42,7547.254 and 8045.202 and 5567.299
same,TSA melting curve raw signal,PfMDH; Temperature 42.5,7505.687 and 7998.361 and 5560.186
same,TSA melting curve raw signal,PfMDH; Temperature 43,7464.06 and 7952.024 and 5554.6
same,TSA melting curve raw signal,PfMDH; Temperature 43.5,7421.867 and 7905.832 and 5550.504
same,TSA melting curve raw signal,PfMDH; Temperature 44,7379.597 and 7859.513 and 5547.899
same,TSA melting curve raw signal,PfMDH; Temperature 44.5,7337.446
same,TSA melting curve raw fluorescence signal,PfMDH; Temperature 73.5,5613.749 and 6203.164 and 5886.042
same,TSA melting curve raw fluorescence signal,PfMDH; Temperature 74,5569.101 and 6153.132 and 5854.081
same,TSA melting curve raw fluorescence signal,PfMDH; Temperature 74.5,5525.043 and 6104.144 and 5823.779
same,TSA melting curve raw fluorescence signal,PfMDH; Temperature 75,5482.121 and 6056.683 and 5794.617
same,TSA melting curve raw fluorescence signal,PfMDH; Temperature 75.5,5439.984 and 6011.409 and 5766.404
same,TSA melting curve raw fluorescence signal,PfMDH; Temperature 76,5398.991 and 5968.463 and 5738.594
same,TSA melting curve raw fluorescence signal,PfMDH; Temperature 76.5,5359.122 and 5928.32 and 5710.64
same,TSA melting curve raw fluorescence signal,PfMDH; Temperature 77,5320.849 and 5890.984 and 5682.195
same,TSA melting curve raw fluorescence signal,PfMDH; Temperature 77.5,5284.278 and 5856.438 and 5652.603
same,TSA melting curve raw fluorescence signal,PfMDH; Temperature 78,5250.129 and 5824.453 and 5622.025
same,TSA melting curve raw fluorescence signal,PfMDH; Temperature 78.5,5218.737 and 5795.085 and 5590.553
same,TSA melting curve raw fluorescence signal,PfMDH; Temperature 79,5190.081 and 5767.8 and 5558.166
same,TSA melting curve raw fluorescence signal,PfMDH; Temperature 79.5,5164.369 and 5742.56 and 5524.814
same,TSA melting curve raw fluorescence signal,PfMDH; Temperature 80,5141.29 and 5718.857 and 5491.376
same,TSA melting curve raw fluorescence signal,PfMDH; Temperature 80.5,5120.384 and 5696.2 and 5457.362
same,TSA melting curve raw fluorescence signal,PfMDH; Temperature 81,5101.31 and 5674.042 and 5422.806
same,TSA melting curve raw fluorescence signal,PfMDH; Temperature 81.5,5083.427 and 5652.313 and 5387.856
same,TSA melting curve raw fluorescence signal,PfMDH; Temperature 82,5065.661 and 5630.45 and 5352.463
same,TSA melting curve raw fluorescence signal,PfMDH; Temperature 82.5,5047.726 and 5608.308 and 5316.196
same,TSA melting curve raw fluorescence signal,PfMDH; Temperature 83,5028.992 and 5585.969 and 5279.628
same,TSA melting curve raw fluorescence signal,PfMDH; Temperature 83.5,5009.082 and 5563.202 and 5242.696
same,TSA melting curve raw fluorescence signal,PfMDH; Temperature 84,4988.359 and 5539.6 and 5205.226
same,TSA melting curve raw fluorescence signal,PfMDH; Temperature 84.5,4967.168 and 5515.215 and 5167.448
same,TSA melting curve raw fluorescence signal,PfMDH; Temperature 85,4945.239 and 5489.971 and 5129.648
same,TSA melting curve raw fluorescence signal,PfMDH; Temperature 85.5,4923.212 and 5463.869 and 5091.727
same,TSA melting curve raw fluorescence signal,PfMDH; Temperature 86,4900.827 and 5436.832 and 5053.765
same,TSA melting curve raw fluorescence signal,PfMDH; Temperature 86.5,4877.872 and 5409.317 and 5016.032
same,TSA melting curve raw fluorescence signal,PfMDH; Temperature 87,4854.433 and 5381.152 and 4978.26
same,TSA melting curve raw fluorescence signal,PfMDH; Temperature 87.5,4830.501 and 5352.422 and 4939.972
same,TSA melting curve raw fluorescence signal,PfMDH; Temperature 88,4805.564 and 5322.651 and 4900.899
same,TSA melting curve raw fluorescence signal,PfMDH; Temperature 88.5,4779.827 and 5291.937 and 4861.053
same,TSA melting curve raw fluorescence signal,PfMDH; Temperature 89,4753.311 and 5260.016 and 4820.436
same,TSA melting curve raw fluorescence signal,PfMDH; Temperature 89.5,4725.882 and 5227.256 and 4779.347
same,TSA melting curve raw fluorescence signal,PfMDH; Temperature 90,4698.144
